“Also recorded” adds a separate entry of the source. Like-named read-outs stand apart in the source and are kept apart here.

The subject of one series is C6 glioma cells. Conditions: cited from earlier work.
The subject of a further series is 5T33 myeloma cells. The settings on record: cited from earlier work.
Another series relates to natural killer cells. The settings on record: cited from earlier work.
The subject of series [1] is myeloma cells and natural killer cells. The settings on record: cited from earlier work.
Series [2] deals with macrophages, breast cancer cells, and myeloma cells. Conditions: at 24 hours; cited from earlier work.
In series [3] the test system is Leukocytes, Lymphocytes, HPCs. Conditions: in 30 minutes; cited from earlier work.
A further series relates to lymphocytes. The settings on record: cited from earlier work.
Series [4] deals with hematopoietic progenitor cells (HPCs). Conditions: in 24-96 hours; cited from earlier work.
The subject of series [5] is mMCs, hMSCs and mDCs. The series can be described thus: ApoTox-Glo viability/cytotoxicity and caspase 3/7 apoptosis assay. The series is classed as cell-based, mouse, human. The settings on record: 2 μM for 16 hours. The procedure:
The effect of radiolabeling on cellular viability was also assessed using the ApoTox-Glo viability, cytotoxicity and caspase 3/7 apoptosis assay (Promega Corporation, Madison, Wis., USA). Unlabeled cells served as control. A known number of unlabeled and ^89Zr-labeled cells (˜10^4/well) were plated in a 96-well culture plate. The culture medium was replaced daily and maintained at 37° C. in a CO2 incubator. At day 7, cell viability, cytotoxicity and apoptosis was quantified in triplicate using the ApoTox-Glo assay. As positive controls, cells were incubated with 30 μg/mL digitonin for 30 minutes for the viability and cytotoxicity assays, while 2 μM staurosporine was added for 16 hours for the caspase 3/7 dependent apoptosis assay.

The subject of series [6] is B16-F10 Mouse melanoma cells (mMCs). The series can be described thus: Labeling of cells with ^89Zr-DBN (cell-bound radioactivity). The series is classed as cell-based. Conditions: 6×10^6 cells incubated 30 minutes with ~6 MBq. The procedure: (§1) B16-F10 Mouse melanoma cells (mMCs) from ATCC, Manassas, Va., USA, human mesenchymal stem cells (hMSCs) from patients and JAWSII mouse dendritic cells (mDCs) from ATCC, Manassas, Va., USA, were used for evaluating the ^89Zr-DBN based labeling method. The mMCs and hMSCs were cultured in complete DMEM (DMEM+10% FBS) and mDCs were cultured in complete alphaMEM (alpha MEM+4 mM L-glutamine+1 mM sodium pyruvate+5 ng/mL murine GM-CSF+20% FBS). The cultures were maintained in a humidified cell culture chamber (21% O2, 74% N2, 5% CO2) at 37° C.
(§2) The adherent cells were trypsinized and washed once with PBS and twice with HEPES buffered GIBCO Hanks Balanced Salt solution buffered (ThermoFisher, Atlanta, Ga., USA) (H-HBSS), pH 7.5. The cell labeling reaction was performed with ˜6×10^6 cells in 500 μl H-HBSS at pH 7.5. […]. After incubation, the cells were washed 4 times with appropriate volume of complete medium. The final labeling efficiency was calculated from the radioactivity bound to cells after all the washes.

Series [7] relates to JAWSII mouse dendritic cells (mDCs). The description is as above. The series is classed as cell-based. The settings on record: 6×10^6 cells incubated 30 minutes with ~6 MBq. How it is done: as §1, §2
In series [8] the test system is human mesenchymal stem cells (hMSCs). Described as above. The settings on record: 6×10^6 cells incubated 30 minutes with ~6 MBq. The series is classed as cell-based. The procedure:
as §1, §2

Series [9] relates to mMCs, hMSCs and mDCs. The series can be described thus: Labeling of cells with ^89Zr(HPO4)2 and ^89Zr-DBN, labeling efficiency over all cell types. The series is classed as cell-based, mouse, human. The procedure:
The adherent cells were trypsinized and washed once with PBS and twice with HEPES buffered GIBCO Hanks Balanced Salt solution buffered (ThermoFisher, Atlanta, Ga., USA) (H-HBSS), pH 7.5. The cell labeling reaction was performed with ˜6×10^6 cells in 500 μl H-HBSS at pH 7.5. […] After incubation, the cells were washed 4 times with appropriate volume of complete medium. The final labeling efficiency was calculated from the radioactivity bound to cells after all the washes.

Series [10] deals with mMCs, hMSCs and mDCs. The series can be described thus: Incorporation of ^89Zr-DBN in protein fraction (subcellular protein fractionation). The series is classed as cell-based, mouse, human. Conditions: days 1, 4 and 7 after labeling; all cell types studied. The procedure:
To understand the sub-cellular localization of the label, incorporation of ^89Zr-DBN into different protein fractions in mMCs, hMSCs and mDCs was evaluated using a subcellular protein fractionation kit (Piercenet Thermo Scientific) at day 1, 4 and 7 post-labeling. The cytosolic proteins, hydrophobic membrane proteins, nuclear proteins and cytoskeletal proteins were isolated and each protein fraction was counted for radioactivity using a 2480 Wizard^2 automatic gamma counter (Perkin Elmer, Waltham, Mass., USA).

The test system of the next series is scAAV1-Cre and AAV2-GFP. The series can be described thus: Labeling of adeno-associated viruses with ^89Zr-DBN. The settings on record: after 30 minutes of labeling. The procedure:
Post-labeling, the ^89Zr-DBN-AAVs were purified from free label and reaction mixture using size exclusion PD-10 desalting columns. The eluted virus in fractions were quantified using protein assay and radioactivity elution pattern was recorded.

The test system of series [11] is mMCs, hMSCs and mDCs. The series can be described thus: Efflux of ^89Zr-DBN from labeled cells. The settings on record: over 7 days post-labeling, medium replaced daily.
Description: The medium was replaced with fresh medium daily for 7 days and radioactivity in the replaced medium was counted. For mDCs with mix of adherent and suspension cells, the plate was centrifuged at 1000 rpm for 10 minutes before replacing the medium to avoid loss of unattached ^89Zr-labeled cells.

For the compound `CNC(=S)NN=CC(C)=NNC(=S)NC.[64Cu]` [^64Cu-PTSM, ^64Cu-pyruvaldehyde-bis(N4-methylthiosemicarbazone)], in the series on C6 glioma cells (C6 glioma cells, in 24-96 hours), the “extent of efflux (as high as)” value is on record as 70-80%. Moreover, the cell labeling yield with C6 glioma cells (in 5 hours) is reported as 70-85% cell labeling yield in. In the series with C6 glioma cells (in 24 hours), the effluxed radioactivity result was “cells (~80% effluxed in 24”.
Regarding `c1cnc2c([O][89Zr]([O]c3cccc4cccnc34)([O]c3cccc4cccnc34)[O]c3cccc4cccnc34)cccc2c1` [^89Zr-oxine], the “viability of labeled cells” value in the series on 5T33 myeloma cells (in first 24 hours) is listed as 76.3±3.2%. Further, the “viability of labeled cells, initial” value in the series with 5T33 myeloma cells (starting value before the decline) is reported as 93%. In addition, the entries for the “viability of radiolabeled cells” value in the series on natural killer cells (after 6 days) and in the series on natural killer cells (over the first 24 hours) were 20-30% and 60-100%, respectively. Further, the cell labeling yield in [1] (in 30 minutes) is on record as ~32% cell labeling yield in 30. The “cell viability after labeling” value in [1] (possibly due to oxine exposure) is on record as “Loss of cell viability possibly”. Also, the efflux in series [2] is 10-29%.
Turning to `[In+3].[O-]c1cccc2cccnc12.[O-]c1cccc2cccnc12.[O-]c1cccc2cccnc12` [^111In-oxine], the cell labeling yield in [3] is reported as ~80% cell labeling yield in 30. Besides, the “extent of efflux (as high as)” value (in the series with lymphocytes (in 24-96 hours); in [4]) was 70-80% each time. Further, the effluxed radioactivity result in the series with lymphocytes (in 24 hours) is recorded as “(~70% effluxed in 24 hours)”.
Regarding `CN[C@@H]1C[C@H]2O[C@@](C)([C@@H]1OC)n1c3ccccc3c3c4c(c5c6ccccc6n2c5c31)C(=O)NC4` [staurosporine], the “apoptosis (caspase 3/7), positive control” value in the series with mMCs, hMSCs and mDCs [5] is “apoptosis was increased”.
“^89Zr-labeled p-isothiocyanato-benzyl-desferrioxamine [^89Zr-DBN]”: the entries for the “Radioactivity concentration of labeled cells” value in [6], in series [7] and in [8] were 0.50±0.10 MBq/10^6 cells, 0.39±0.20 MBq/10^6 cells and 0.47±0.10 MBq/10^6 cells, respectively. The “Radioactivity concentrations of labeled cells achieved without a negative effect on cellular viability” value with mMCs, hMSCs and mDCs [9] is “up to 0.5 MBq/1×10^6 cells”. Also, the cell labeling efficiency with mMCs, hMSCs and mDCs [9] (30 minutes labeling at 37° C., ~6×10^6 cells, ~6 MBq, cell-bound radioactivity after washes, depending on cell type) is recorded as 30-50%. Further, the “^89Zr-radioactivity incorporated in hydrophobic membrane protein fraction” value with mMCs, hMSCs and mDCs [10] is on record as around 99%. In addition, the “viral labeling yield (radioactivity concentration)” value in the series with scAAV1-Cre and AAV2-GFP is listed as around 20 mCi/10^14 viral particles. For the same compound, the “efflux of ^89Zr-radioactivity from labeled cells” value in the series on mMCs, hMSCs and mDCs [11] was “negligible efflux; also recorded: no efflux of radiolabel was observed”.

The values are drawn from patent publication US11534506B2, “Methods for cell labeling and medical imaging” (priority 2015, dated 2022).
